# Experimental data: US8399683B2 (TetraLogic Pharmaceuticals, priority 2008, dated 2013)
# Tests used:
# cIAP-1 BIR-3 = cIAP-1 BIR-3 (Homo sapiens, UniProt Q13490); assay: Fluorescence polarization binding affinity to cIAP-1 BIR-3 (competition with AbuRPF-K(5-Fam)-NH2); conditions: 5 nM labeled peptide, 40 nM BIR3, 15 min at RT, pH 7.5; reported as ranges; read-out: KD (c-IAP-1 BIR3)
# Experimental: (§1) The binding affinities of the compounds are reported as a KD value (μM). Briefly, various concentrations of test peptides were mixed with 5 nM of the fluorescently labeled peptide (i.e., a mutated N-terminal Smac peptide—AbuRPF-K(5-Fam)-NH2) and 40 nM of the respective IAP BIR3 for 15 min at RT in […] of 0.1M Potassium Phosphate buffer, pH 7.5 containing […] bovine g-globulin. Following incubation, the polarization values (mP) were measured on a Victor2V (available from PerkinElmer Life Sciences) using a 485 nm excitation filter and a 520 nm emission filter. The reported KD values are supplied as ranges (A=<0.1 μM, B=0.1 μM to 1 μM, C>1 μM to 10 μM, D=>10 μM).
# XIAP BIR-3 = target: T1, XIAP BIR-3 (Homo sapiens, UniProt P98170); assay: Fluorescence polarization binding affinity to XIAP BIR-3 (competition with AbuRPF-K(5-Fam)-NH2); conditions: 5 nM labeled peptide, 40 nM BIR3, 15 min at RT, pH 7.5; reported as ranges
# T1 construct: 40 nM of the respective IAP BIR3
# Experimental: as §1
# SK-OV-3 cells = assay: Growth inhibition of ovarian cancer cell line SK-OV-3 (MTT assay, cell survival); type: cell-based; conditions: Homo sapiens, drug concentration that results in 50% cell survival, 72 hrs incubation, reported as ranges
# Experimental: Compounds of the invention also were tested for their ability to inhibit the growth of an ovarian cancer cell line, SK-OV-3. A known assay previously used for measuring cell growth (as described in Hansen, M. B., Nielsen, S. E., and Berg, K. (1989) J. Immunol. Methods 119, 203-210 and incorporated herein by reference in its entirety) was used. Briefly, SK-OV-3 cells are seeded in 96-well plates in McCoy's medium containing 10% fetal bovine serum albumin (5,000 per well) and incubated overnight at 37° C. The next day, test compounds are added at various concentrations (0.003-10 μM) and the plates are incubated at 37° C. for an additional 72 hrs. This incubation time was considered to be optimal for measuring inhibitory effects of the different compounds tested. 50 microliters of 5 mg/mL MTT reagent is added to each well and the plates are incubated at 37° C. for another three (3) hours. At the end of the three (3) hour incubation period, 50 microliters of DMSO is added to each well to dissolve cells and the optical density (OD) of the wells is measured with a microplate reader (Victor^2 1420, Wallac, Finland) at 535 nm. Cell survival (CS) was calculated using the following equation: CS=(OD treated well/mean OD control wells)×100%.
# The CC50 (reported in the following tables), is defined as the drug concentration that results in 50% cell survival (CS), and is derived by calculating the point where the dose-response curve crosses the 50% CS point using GraphPad Prism. The reported CC50 values are supplied as ranges (A=<0.1 μM, B=0.1 μM to 1 μM, C=>1 μM to 10 μM, D=>10 μM).
# Chain of cIAP-1 BIR-3 (Q13490 266-352 limits assumed): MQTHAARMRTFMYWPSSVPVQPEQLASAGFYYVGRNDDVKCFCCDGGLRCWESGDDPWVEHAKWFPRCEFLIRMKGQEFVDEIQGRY
# T1 sequence (P98170 241-356 limits assumed): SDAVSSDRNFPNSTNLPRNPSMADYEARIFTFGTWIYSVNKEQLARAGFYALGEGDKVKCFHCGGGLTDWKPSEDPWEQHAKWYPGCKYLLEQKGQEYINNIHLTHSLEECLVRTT
Compound,Kd (cIAP-1 BIR-3) [nM],Kd (XIAP BIR-3) [nM],CC50 (SK-OV-3 cells) [nM]
"CN[C@@H](C)C(=O)N[C@H](C(=O)N1CC[C@@H]2[C@H]1[C@@H](c1c[nH]c3cc(F)ccc13)CN2c1ncccn1)C1CCCCC1 [Example 75, N-{1-Cyclohexyl-2-[6-(6-fluoro-1H-indol-3-yl)-4-pyrimidin-2-yl-hexahydro-pyrrolo[3,2-b]pyrrol-1-yl]-2-oxo-ethyl}-2-methylamino-propionamide]",< 100,< 100,< 100
"CN[C@@H](C)C(=O)N[C@H](C(=O)N1CC[C@@H]2[C@H]1[C@@H](c1c[nH]c3cc(F)ccc13)CN2C(=O)Cc1ccccc1)C1CCCCC1 [Example 39, N-{1-Cyclohexyl-2-[6-(6-fluoro-1H-indol-3-yl)-4-phenylacetyl-hexahydro-pyrrolo[3,2-b]pyrrol-1-yl]-2-oxo-ethyl}-2-methylamino-propionamide]",< 100,< 100,< 100
"CN[C@@H](C)C(=O)N[C@H](C(=O)N1CC[C@@H]2[C@H]1[C@H](c1c[nH]c3cc(F)ccc13)CN2C1CCCC1)C(C)C [Example 7, N-{1-[4-Cyclopentyl-6-(6-fluoro-1H-indol-3-yl)-hexahydro-pyrrolo[3,2-b]pyrrole-1-carbonyl]-2-methyl-propyl}-2-methylamino-propionamide]",100 to 1000,1000 to 10000,1000 to 10000
"CN[C@@H](C)C(=O)N[C@H](C(=O)N1CC[C@@H]2[C@H]1[C@@H](c1c[nH]c3cc(F)ccc13)CN2Cc1nccn1C)C1CCCCC1 [Example 27, N-{1-Cyclohexyl-2-[6-(6-fluoro-1H-indol-3-yl)-4-(1-methyl-1H-imidazol-2-ylmethyl)-hexahydro-pyrrolo[3,2-b]pyrrol-1-yl]-2-oxo-ethyl}-2-methylamino-propionamide]",< 100,< 100,1000 to 10000
"CN[C@@H](C)C(=O)N[C@H](C(=O)N1CC[C@@H]2[C@H]1[C@@H](c1c[nH]c3cc(F)ccc13)CN2Cc1ncc(C)s1)C1CCCCC1 [Example 23, N-{1-Cyclohexyl-2-[6-(6-fluoro-1H-indol-3-yl)-4-(5-methyl-thiazol-2-ylmethyl)-hexahydro-pyrrolo[3,2-b]pyrrol-1-yl]-2-oxo-ethyl}-2-methylamino-propionamide]",< 100,< 100,< 100
"CN[C@@H](C)C(=O)N[C@H](C(=O)N1CC[C@H]2NC[C@H](c3c[nH]c4cc(F)ccc34)[C@H]21)C(C)(C)C [Example 31, N-{1-[6-(6-Fluoro-1H-indol-3-yl)-hexahydro-pyrrolo[3,2-b]pyrrole-1-carbonyl]-2,2-dimethyl-propyl}-2-methylamino-propionamide]",< 100,100 to 1000,< 100
"CCOC(=O)CN1C[C@H](c2c[nH]c3cc(F)ccc23)[C@@H]2[C@H]1CCN2C(=O)[C@@H](NC(=O)[C@H](C)NC)C1CCCCC1 [Example 41, [4-[2-Cyclohexyl-2-(2-methylamino-propionylamino)-acetyl]-3-(6-fluoro-1H-indol-3-yl)-hexahydro-pyrrolo[3,2-b]pyrrol-1-yl]-acetic acid ethyl ester]",< 100,< 100,100 to 1000
"CN[C@@H](C)C(=O)N[C@H](C(=O)N1CC[C@@H]2[C@H]1[C@@H](c1c[nH]c3cc(F)ccc13)CN2Cc1ccncc1)C1CCCCC1 [Example 26, N-{1-Cyclohexyl-2-[6-(6-fluoro-1H-indol-3-yl)-4-pyridin-4-ylmethyl-hexahydro-pyrrolo[3,2-b]pyrrol-1-yl]-2-oxo-ethyl}-2-methylamino-propionamide]",< 100,< 100,< 100
"CN[C@@H](C)C(=O)N[C@H](C(=O)N1C[C@@H](O)[C@H]2NC[C@@H](c3c[nH]c4cc(F)ccc34)[C@H]21)C1CCCCC1 [Example 86, N-{1-Cyclohexyl-2-[6R-(6-fluoro-1H-indol-3-yl)-3-hydroxy-hexahydro-pyrrolo[3,2-b]pyrrol-1-yl]-2-oxo-ethyl}-2-methylamino-propionamide]",100 to 1000,> 10000,> 10000
"CNC(C)C(=O)NC(C(=O)N1CC(c2c[nH]c3cc(F)ccc23)C2C1CCN2C(=O)C(NC(=O)C(C)NC)C1CCCCC1)C1CCCCC1 (stereo not drawn) [Example 111, N-{1-Cyclohexyl-2-[4-[2-cyclohexyl-2-(2-methylamino-propionylamino)-acetyl]-6-(6-fluoro-1H-indol-3-yl)-hexahydro-pyrrolo[3,2-b]pyrrol-1-yl]-2-oxo-ethyl}-2-methylamino-propionamide]",< 100,< 100,< 100
"CN[C@@H](C)C(=O)N[C@H](C(=O)N1CC[C@@H]2[C@H]1[C@@H](c1c[nH]c3cc(F)ccc13)CN2C1CCNCC1)C1CCCCC1 [Example 21, N-{1-Cyclohexyl-2-[6-(6-fluoro-1H-indol-3-yl)-4-piperidin-4-yl-hexahydro-pyrrolo[3,2-b]pyrrol-1-yl]-2-oxo-ethyl}-2-methylamino-propionamide]",< 100,100 to 1000,> 10000

# Second part, led by results:
Kd (cIAP-1 BIR-3) [nM],Kd (XIAP BIR-3) [nM],Compound,CC50 (SK-OV-3 cells) [nM]
< 100,100 to 1000,"CCN1C[C@H](c2c[nH]c3cc(F)ccc23)[C@@H]2[C@H]1CCN2C(=O)[C@@H](NC(=O)[C@H](C)NC)C1CCCCC1 [Example 18, N-{1-Cyclohexyl-2-[4-ethyl-6-(6-fluoro-1H-indol-3-yl)-hexahydro-pyrrolo[3,2-b]pyrrol-1-yl]-2-oxo-ethyl}-2-methylamino-propionamide]",100 to 1000
< 100,< 100,"CN[C@@H](C)C(=O)N[C@@H](CO)C(=O)N1CC[C@@H]2[C@H]1[C@@H](c1c[nH]c3cc(F)ccc13)CN2S(C)(=O)=O [Example 52, N-{2-[6-(6-Fluoro-1H-indol-3-yl)-4-methanesulfonyl-hexahydro-pyrrolo[3,2-b]pyrrol-1-yl]-1-hydroxymethyl-2-oxo-ethyl}-2-methylamino-propionamide]",1000 to 10000
< 100,1000 to 10000,"CN[C@@H](C)C(=O)N[C@@H](COC)C(=O)N1CC[C@@H]2[C@H]1[C@H](c1c[nH]c3cc(F)ccc13)CN2C1CCCC1 [Example 12, N-{2-[4-Cyclopentyl-6-(6-fluoro-1H-indol-3-yl)-hexahydro-pyrrolo[3,2-b]pyrrol-1-yl]-1-methoxymethyl-2-oxo-ethyl}-2-methylamino-propionamide]",> 10000
100 to 1000,100 to 1000,CC[C@H](NC(=O)[C@H](C)NC)C(=O)N1CC[C@@H]2[C@H]1[C@@H](c1c[nH]c3cc(F)ccc13)CN2C1CCCC1 [Example 6],100 to 1000
< 100,< 100,"CN[C@@H](C)C(=O)N[C@H](C(=O)N1CC[C@@H]2[C@H]1[C@@H](c1c[nH]c3cc(F)ccc13)CN2S(C)(=O)=O)[C@@H](C)OC [Example 58, N-{1-[6-(6-Fluoro-1H-indol-3-yl)-4-methanesulfonyl-hexahydro-pyrrolo[3,2-b]pyrrole-1-carbonyl]-2-methoxy-propyl}-2-methylamino-propionamide]",< 100
1000 to 10000,> 10000,"CN[C@@H](C)C(=O)N[C@@H](COC)C(=O)N1CC[C@@H]2[C@H]1[C@H](c1c[nH]c3cc(F)ccc13)CN2S(C)(=O)=O [Example 53, N-{2-[6-(6-Fluoro-1H-indol-3-yl)-4-methanesulfonyl-hexahydro-pyrrolo[3,2-b]pyrrol-1-yl]-1-methoxymethyl-2-oxo-ethyl}-2-methylamino-propionamide]",> 10000
< 100,< 100,"CN[C@@H](C)C(=O)N[C@H](C(=O)N1CC[C@@H]2[C@H]1[C@@H](c1c[nH]c3cc(F)ccc13)CN2C(C)=O)[C@@H](C)O [Example 65, N-{1-[4-Acetyl-6-(6-fluoro-1H-indol-3-yl)-hexahydro-pyrrolo[3,2-b]pyrrole-1-carbonyl]-2-hydroxy-propyl}-2-methylamino-propionamide]",100 to 1000
